Measured values from ChEMBL document CHEMBL4507296 (2021).

Columns and labels:
[1] = target: Phosphorylase b kinase regulatory subunit alpha, liver isoform (Homo sapiens) (UniProt P46019); settings: Compound concentration 1000.0 nM
[2] = system: Epidermal growth factor receptor (Homo sapiens), P00533 [L861Q]; settings: Compound concentration 1000.0 nM
[3] = target: Mitogen-activated protein kinase kinase kinase 1 (Homo sapiens) (UniProt Q13233); settings: Compound concentration 1000.0 nM
[4] = target: Wee1-like protein kinase 2 (Homo sapiens) (UniProt P0C1S8); settings: Compound concentration 1000.0 nM
[5] = target: Myosin-IIIa (Homo sapiens) (UniProt Q8NEV4); settings: Compound concentration 1000.0 nM
[6] = target: Serine/threonine-protein kinase 4 (Homo sapiens) (UniProt Q13043); settings: Compound concentration 1000.0 nM
[7] = target: Serine/threonine-protein kinase TAO2 (Homo sapiens) (UniProt Q9UL54); settings: Compound concentration 1000.0 nM
[8] = target: Casein kinase I isoform alpha (Homo sapiens) (UniProt P48729); settings: Compound concentration 1000.0 nM
[9] = target: Mitogen-activated protein kinase kinase kinase 14 (Homo sapiens) (UniProt Q99558); settings: Compound concentration 1000.0 nM
[10] = target: Ephrin type-B receptor 2 (Homo sapiens) (UniProt P29323); settings: Compound concentration 1000.0 nM
[11] = target: Serine/threonine-protein kinase Chk2 (Homo sapiens) (UniProt O96017); settings: Compound concentration 1000.0 nM
[12] = target: Serine/threonine-protein kinase pim-1 (Homo sapiens) (UniProt P11309); settings: Compound concentration 1000.0 nM
[13] = target: Transient receptor potential cation channel subfamily M member 6 (Homo sapiens) (UniProt Q9BX84); settings: Compound concentration 1000.0 nM
[14] = system: Tyrosine-protein kinase ABL1 (Homo sapiens), P00519 [F317I]; settings: Compound concentration 1000.0 nM
Sequence of Tyrosine-protein kinase ABL1 (Homo sapiens), P00519 [F317I] (P00519 whole entry F317I): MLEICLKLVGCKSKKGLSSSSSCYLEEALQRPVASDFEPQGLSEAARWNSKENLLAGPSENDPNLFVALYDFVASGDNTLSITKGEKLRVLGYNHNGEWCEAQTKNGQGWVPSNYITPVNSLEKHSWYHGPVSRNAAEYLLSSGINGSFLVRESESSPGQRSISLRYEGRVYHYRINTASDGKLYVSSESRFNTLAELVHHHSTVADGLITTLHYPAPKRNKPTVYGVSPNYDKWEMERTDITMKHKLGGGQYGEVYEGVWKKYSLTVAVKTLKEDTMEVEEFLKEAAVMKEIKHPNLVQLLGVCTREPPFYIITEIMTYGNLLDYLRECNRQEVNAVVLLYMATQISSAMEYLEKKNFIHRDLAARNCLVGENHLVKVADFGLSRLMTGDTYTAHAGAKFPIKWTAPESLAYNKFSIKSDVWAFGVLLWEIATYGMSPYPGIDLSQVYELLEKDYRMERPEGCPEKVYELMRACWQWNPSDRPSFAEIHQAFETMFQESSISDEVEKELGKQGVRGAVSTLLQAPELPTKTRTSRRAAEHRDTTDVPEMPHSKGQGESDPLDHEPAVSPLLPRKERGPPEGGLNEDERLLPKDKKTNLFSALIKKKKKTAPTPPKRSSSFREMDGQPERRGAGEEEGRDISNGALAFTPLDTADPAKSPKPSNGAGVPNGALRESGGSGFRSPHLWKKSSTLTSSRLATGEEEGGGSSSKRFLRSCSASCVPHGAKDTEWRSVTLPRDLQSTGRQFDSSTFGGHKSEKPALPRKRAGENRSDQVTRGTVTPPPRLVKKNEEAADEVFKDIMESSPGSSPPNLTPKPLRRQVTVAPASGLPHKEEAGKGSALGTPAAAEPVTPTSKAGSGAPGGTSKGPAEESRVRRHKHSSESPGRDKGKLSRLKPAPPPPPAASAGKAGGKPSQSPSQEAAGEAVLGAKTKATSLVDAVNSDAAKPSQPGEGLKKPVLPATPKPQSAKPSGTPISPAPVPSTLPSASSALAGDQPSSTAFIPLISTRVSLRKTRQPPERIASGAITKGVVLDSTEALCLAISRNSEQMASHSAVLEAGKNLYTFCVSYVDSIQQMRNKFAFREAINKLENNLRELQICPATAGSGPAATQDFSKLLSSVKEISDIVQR

[15] = target: Serine/threonine-protein kinase VRK2 (Homo sapiens) (UniProt Q86Y07); settings: Compound concentration 1000.0 nM
[16] = target: Mitogen-activated protein kinase kinase kinase 2 (Homo sapiens) (UniProt Q9Y2U5); settings: Compound concentration 1000.0 nM
[17] = target: Tyrosine-protein kinase FRK (Homo sapiens) (UniProt P42685); settings: Compound concentration 1000.0 nM
[18] = target: Serine/threonine-protein kinase tousled-like 2 (Homo sapiens) (UniProt Q86UE8); settings: Compound concentration 1000.0 nM
[19] = target: Aurora kinase B (Homo sapiens) (UniProt Q96GD4); settings: Compound concentration 1000.0 nM
Sequence of Aurora kinase B (Homo sapiens) (Q96GD4 whole entry): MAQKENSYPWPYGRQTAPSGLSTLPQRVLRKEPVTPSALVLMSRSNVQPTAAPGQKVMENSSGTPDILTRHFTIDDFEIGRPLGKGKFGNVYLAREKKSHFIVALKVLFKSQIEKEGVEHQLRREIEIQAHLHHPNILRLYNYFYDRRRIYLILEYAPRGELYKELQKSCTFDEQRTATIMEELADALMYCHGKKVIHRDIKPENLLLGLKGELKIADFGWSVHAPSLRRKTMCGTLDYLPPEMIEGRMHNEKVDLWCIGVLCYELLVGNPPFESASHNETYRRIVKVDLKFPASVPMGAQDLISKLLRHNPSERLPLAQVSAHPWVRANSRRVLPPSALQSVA

[20] = target: Ribosomal protein S6 kinase alpha-6 (Homo sapiens) (UniProt Q9UK32); settings: Compound concentration 1000.0 nM
Sequence of Ribosomal protein S6 kinase alpha-6 (Homo sapiens) (Q9UK32 whole entry): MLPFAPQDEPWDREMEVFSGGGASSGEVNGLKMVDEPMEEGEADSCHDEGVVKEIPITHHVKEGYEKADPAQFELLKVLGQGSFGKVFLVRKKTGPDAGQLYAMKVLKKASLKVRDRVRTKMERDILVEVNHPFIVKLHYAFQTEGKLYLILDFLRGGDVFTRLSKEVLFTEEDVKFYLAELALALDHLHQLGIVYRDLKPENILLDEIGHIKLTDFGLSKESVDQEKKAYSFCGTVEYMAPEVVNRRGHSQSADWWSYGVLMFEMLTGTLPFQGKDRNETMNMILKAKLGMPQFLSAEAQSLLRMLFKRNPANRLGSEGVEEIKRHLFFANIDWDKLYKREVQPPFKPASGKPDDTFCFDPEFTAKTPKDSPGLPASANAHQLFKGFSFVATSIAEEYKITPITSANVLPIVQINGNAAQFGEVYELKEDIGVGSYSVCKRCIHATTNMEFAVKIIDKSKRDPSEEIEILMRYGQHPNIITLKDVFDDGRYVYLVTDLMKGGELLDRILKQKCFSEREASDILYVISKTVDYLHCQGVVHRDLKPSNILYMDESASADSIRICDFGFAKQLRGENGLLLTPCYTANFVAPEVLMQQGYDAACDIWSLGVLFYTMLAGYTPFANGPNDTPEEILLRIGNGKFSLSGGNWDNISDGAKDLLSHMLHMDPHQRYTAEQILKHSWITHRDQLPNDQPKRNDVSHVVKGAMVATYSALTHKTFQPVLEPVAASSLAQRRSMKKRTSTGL

[21] = target: Cyclin-dependent kinase 2 homolog (Plasmodium falciparum (isolate 3D7)) (UniProt P61075); settings: Compound concentration 1000.0 nM
Sequence of Cyclin-dependent kinase 2 homolog (Plasmodium falciparum (isolate 3D7)) (P61075 whole entry): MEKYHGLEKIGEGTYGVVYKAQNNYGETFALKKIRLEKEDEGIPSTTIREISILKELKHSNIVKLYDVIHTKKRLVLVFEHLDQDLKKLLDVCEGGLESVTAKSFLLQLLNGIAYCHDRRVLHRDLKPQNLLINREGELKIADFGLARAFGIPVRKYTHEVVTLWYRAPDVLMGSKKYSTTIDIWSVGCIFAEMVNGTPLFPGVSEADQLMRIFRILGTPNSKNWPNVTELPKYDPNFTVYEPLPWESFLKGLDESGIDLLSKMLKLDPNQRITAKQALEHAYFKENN

[22] = target: Cyclin-dependent kinase 19 (Homo sapiens) (UniProt Q9BWU1); settings: Compound concentration 1000.0 nM
Sequence of Cyclin-dependent kinase 19 (Homo sapiens) (Q9BWU1 whole entry): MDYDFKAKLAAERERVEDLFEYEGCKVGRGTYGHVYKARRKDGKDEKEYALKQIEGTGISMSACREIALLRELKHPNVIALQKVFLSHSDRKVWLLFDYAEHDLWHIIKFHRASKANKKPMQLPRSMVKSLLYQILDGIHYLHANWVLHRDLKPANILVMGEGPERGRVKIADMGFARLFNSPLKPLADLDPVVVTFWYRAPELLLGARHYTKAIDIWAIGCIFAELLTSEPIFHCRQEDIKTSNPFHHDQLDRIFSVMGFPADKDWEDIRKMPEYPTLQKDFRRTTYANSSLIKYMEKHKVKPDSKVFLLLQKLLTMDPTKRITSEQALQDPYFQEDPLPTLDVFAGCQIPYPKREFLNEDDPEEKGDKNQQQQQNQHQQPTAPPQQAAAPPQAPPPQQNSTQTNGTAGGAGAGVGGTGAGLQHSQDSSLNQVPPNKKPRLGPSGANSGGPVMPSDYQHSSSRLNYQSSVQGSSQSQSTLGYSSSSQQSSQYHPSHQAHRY

[23] = target: Receptor-interacting serine/threonine-protein kinase 4 (Homo sapiens) (UniProt P57078); settings: Compound concentration 1000.0 nM
[24] = target: Serine/threonine-protein kinase 32B (Homo sapiens) (UniProt Q9NY57); settings: Compound concentration 1000.0 nM
[25] = target: Serine/threonine-protein kinase WNK1 (Homo sapiens) (UniProt Q9H4A3); settings: Compound concentration 1000.0 nM
[26] = target: Sodium-dependent serotonin transporter (Homo sapiens) (UniProt P31645); settings: Compound concentration 10.0 uM
[27] = target: Casein kinase I isoform alpha-like (Homo sapiens) (UniProt Q8N752); settings: Compound concentration 1000.0 nM
[28] = target: Phosphatidylinositol 5-phosphate 4-kinase type-2 beta (Homo sapiens) (UniProt P78356); settings: Compound concentration 1000.0 nM
[29] = target: Tyrosine-protein kinase Tec (Homo sapiens) (UniProt P42680); settings: Compound concentration 1000.0 nM
[30] = target: Serine/threonine-protein kinase 17B (Homo sapiens) (UniProt O94768); settings: Compound concentration 1000.0 nM
[31] = target: Mitogen-activated protein kinase kinase kinase 15 (Homo sapiens) (UniProt Q6ZN16); settings: Compound concentration 1000.0 nM
Sequence of Mitogen-activated protein kinase kinase kinase 15 (Homo sapiens) (Q6ZN16 whole entry): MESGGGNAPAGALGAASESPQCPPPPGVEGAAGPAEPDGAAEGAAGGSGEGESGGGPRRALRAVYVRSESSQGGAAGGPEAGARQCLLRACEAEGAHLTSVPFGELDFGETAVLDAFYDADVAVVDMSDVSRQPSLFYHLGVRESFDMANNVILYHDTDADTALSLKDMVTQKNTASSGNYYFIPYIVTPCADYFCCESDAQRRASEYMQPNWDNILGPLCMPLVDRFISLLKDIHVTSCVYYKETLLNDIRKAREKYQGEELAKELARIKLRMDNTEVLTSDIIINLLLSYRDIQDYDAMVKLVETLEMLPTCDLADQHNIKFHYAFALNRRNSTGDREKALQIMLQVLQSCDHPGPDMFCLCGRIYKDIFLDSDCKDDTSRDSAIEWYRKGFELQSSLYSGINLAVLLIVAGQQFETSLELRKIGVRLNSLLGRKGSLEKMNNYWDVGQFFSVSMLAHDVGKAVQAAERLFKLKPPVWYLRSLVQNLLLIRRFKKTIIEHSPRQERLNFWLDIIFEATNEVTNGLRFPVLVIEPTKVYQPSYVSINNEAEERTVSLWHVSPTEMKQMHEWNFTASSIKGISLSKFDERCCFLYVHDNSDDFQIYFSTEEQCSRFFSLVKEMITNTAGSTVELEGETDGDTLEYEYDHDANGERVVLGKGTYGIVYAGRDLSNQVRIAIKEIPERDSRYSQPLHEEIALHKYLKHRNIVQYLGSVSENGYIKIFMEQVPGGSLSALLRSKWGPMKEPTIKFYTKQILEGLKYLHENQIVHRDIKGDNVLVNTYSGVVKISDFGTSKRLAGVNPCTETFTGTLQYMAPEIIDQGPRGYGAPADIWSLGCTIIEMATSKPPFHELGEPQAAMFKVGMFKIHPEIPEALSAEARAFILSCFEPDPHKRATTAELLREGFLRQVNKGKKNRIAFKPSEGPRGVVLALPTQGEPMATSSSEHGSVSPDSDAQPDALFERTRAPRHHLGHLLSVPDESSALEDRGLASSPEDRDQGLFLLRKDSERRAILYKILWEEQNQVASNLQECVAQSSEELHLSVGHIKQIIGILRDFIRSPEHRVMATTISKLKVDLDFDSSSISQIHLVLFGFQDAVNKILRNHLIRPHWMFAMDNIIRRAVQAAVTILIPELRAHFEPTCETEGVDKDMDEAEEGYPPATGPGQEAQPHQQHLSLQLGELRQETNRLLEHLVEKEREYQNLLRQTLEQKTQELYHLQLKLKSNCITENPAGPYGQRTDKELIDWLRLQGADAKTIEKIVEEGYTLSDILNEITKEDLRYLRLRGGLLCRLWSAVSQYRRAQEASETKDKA

[32] = target: Mast/stem cell growth factor receptor Kit (Homo sapiens) (UniProt P10721); settings: Compound concentration 1000.0 nM
[33] = system: Tyrosine-protein kinase ABL1 (Homo sapiens), P00519 [F317I]; settings: Compound concentration 1000.0 nM; remark: listed apart in the source
[34] = target: Interferon-induced, double-stranded RNA-activated protein kinase (Homo sapiens) (UniProt P19525); settings: Compound concentration 1000.0 nM
[35] = target: Receptor tyrosine-protein kinase erbB-3 (Homo sapiens) (UniProt P21860); settings: Compound concentration 1000.0 nM
[36] = target: Tyrosine-protein kinase JAK3 (Homo sapiens) (UniProt P52333); settings: Compound concentration 1000.0 nM
[37] = target: Glycogen synthase kinase-3 beta (Homo sapiens) (UniProt P49841); settings: Compound concentration 1000.0 nM
[38] = target: Ephrin type-B receptor 1 (Homo sapiens) (UniProt P54762); settings: Compound concentration 1000.0 nM
[39] = target: Ribosomal protein S6 kinase alpha-3 (Homo sapiens) (UniProt P51812); settings: Compound concentration 1000.0 nM
Sequence of Ribosomal protein S6 kinase alpha-3 (Homo sapiens) (P51812 whole entry): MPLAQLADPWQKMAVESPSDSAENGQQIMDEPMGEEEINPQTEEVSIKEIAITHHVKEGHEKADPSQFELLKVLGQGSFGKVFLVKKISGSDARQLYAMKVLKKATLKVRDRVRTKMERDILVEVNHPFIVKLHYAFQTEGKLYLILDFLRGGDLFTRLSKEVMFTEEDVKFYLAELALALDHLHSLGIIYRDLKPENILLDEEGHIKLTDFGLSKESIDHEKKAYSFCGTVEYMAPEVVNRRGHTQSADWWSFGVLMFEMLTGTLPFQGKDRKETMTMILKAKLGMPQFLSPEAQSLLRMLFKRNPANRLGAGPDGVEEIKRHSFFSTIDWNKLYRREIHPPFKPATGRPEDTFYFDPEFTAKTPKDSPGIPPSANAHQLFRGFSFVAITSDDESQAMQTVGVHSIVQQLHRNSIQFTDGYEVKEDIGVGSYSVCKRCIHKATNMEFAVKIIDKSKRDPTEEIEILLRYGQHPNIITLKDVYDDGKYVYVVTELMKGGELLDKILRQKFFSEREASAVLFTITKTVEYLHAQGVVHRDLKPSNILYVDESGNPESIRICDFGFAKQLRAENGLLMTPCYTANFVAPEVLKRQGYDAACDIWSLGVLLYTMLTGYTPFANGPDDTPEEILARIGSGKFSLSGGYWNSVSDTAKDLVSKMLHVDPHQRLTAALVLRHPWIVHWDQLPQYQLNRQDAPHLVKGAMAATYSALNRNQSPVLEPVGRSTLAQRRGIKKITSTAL

[40] = system: Epidermal growth factor receptor (Homo sapiens), P00533 [G719S]; settings: Compound concentration 1000.0 nM
[41] = target: Ribosomal protein S6 kinase alpha-6 (Homo sapiens) (UniProt Q9UK32); settings: Compound concentration 1000.0 nM; remark: listed apart in the source
[42] = target: Tyrosine-protein kinase JAK2 (Homo sapiens) (UniProt O60674); settings: Compound concentration 1000.0 nM
[43] = target: Non-receptor tyrosine-protein kinase TNK1 (Homo sapiens) (UniProt Q13470); settings: Compound concentration 1000.0 nM
[44] = target: 5-hydroxytryptamine receptor 2B (Homo sapiens) (UniProt P41595); settings: Compound concentration 10.0 uM
[45] = target: Serine/threonine-protein kinase Chk1 (Homo sapiens) (UniProt O14757); settings: Compound concentration 1000.0 nM

C[C@H](c1ccc(F)cc1)N(Cc1cccc(C(=O)O)c1)C(=O)c1cnc2ccccc2c1 [PF-05105679]
inactive: residual activity [1] 100% | residual activity [2] 100% | residual activity [3] 100% | residual activity [4] 100% | residual activity [5] 100% | residual activity [6] 92% | residual activity [7] 100% | residual activity [8] 100% | residual activity [9] 100% | residual activity [10] 96% | residual activity [11] 91% | residual activity [12] 100% | residual activity [13] 100% | residual activity [14] 100% | residual activity [15] 100% | residual activity [16] 100% | residual activity [17] 77% | residual activity [18] 97% | residual activity [19] 100% | residual activity [20] 100% | residual activity [21] 100% | residual activity [22] 100% | residual activity [23] 100% | residual activity [24] 97% | residual activity [25] 100% | inhibition [26] 23.4% | residual activity [27] 100% | residual activity [28] 96% | residual activity [29] 80% | residual activity [30] 80% | residual activity [31] 100% | residual activity [32] 100% | residual activity [33] 72% | residual activity [34] 100% | residual activity [35] 68% | residual activity [36] 100% | residual activity [37] 100% | residual activity [38] 83% | residual activity [39] 100% | residual activity [40] 100% | residual activity [41] 100% | residual activity [42] 88% | residual activity [43] 100% | inhibition [44] 0.7% | residual activity [45] 100%
